The target in data set [1] is full-length FLAG-tagged B-Raf(V600E) (Homo sapiens (Human), UniProt P15056, V600E). The data set is described as follows: BRAF V600E enzyme assay (TR-FRET competitive displacement). The format is binding. To be noted: averaged IC50; TR-FRET tracer displacement, 60 min. Put shortly: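 TR-FRET tracer competition: compound (top dose 10 μM, 3-fold, 11 points) incubated 60 min at ambient temperature with FLAG-tagged full-length B-Raf(V600E) (5 nM), Eu anti-FLAG cryptate (0.5 nM) and tracer (50 nM), pH 7.4 HEPES/MgCl2 buffer. 665/615 ratio converted to percent of control; IC50 where fitted curve crosses 50 POC.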
Chain of full-length FLAG-tagged B-Raf(V600E) (P15056 whole entry V600E): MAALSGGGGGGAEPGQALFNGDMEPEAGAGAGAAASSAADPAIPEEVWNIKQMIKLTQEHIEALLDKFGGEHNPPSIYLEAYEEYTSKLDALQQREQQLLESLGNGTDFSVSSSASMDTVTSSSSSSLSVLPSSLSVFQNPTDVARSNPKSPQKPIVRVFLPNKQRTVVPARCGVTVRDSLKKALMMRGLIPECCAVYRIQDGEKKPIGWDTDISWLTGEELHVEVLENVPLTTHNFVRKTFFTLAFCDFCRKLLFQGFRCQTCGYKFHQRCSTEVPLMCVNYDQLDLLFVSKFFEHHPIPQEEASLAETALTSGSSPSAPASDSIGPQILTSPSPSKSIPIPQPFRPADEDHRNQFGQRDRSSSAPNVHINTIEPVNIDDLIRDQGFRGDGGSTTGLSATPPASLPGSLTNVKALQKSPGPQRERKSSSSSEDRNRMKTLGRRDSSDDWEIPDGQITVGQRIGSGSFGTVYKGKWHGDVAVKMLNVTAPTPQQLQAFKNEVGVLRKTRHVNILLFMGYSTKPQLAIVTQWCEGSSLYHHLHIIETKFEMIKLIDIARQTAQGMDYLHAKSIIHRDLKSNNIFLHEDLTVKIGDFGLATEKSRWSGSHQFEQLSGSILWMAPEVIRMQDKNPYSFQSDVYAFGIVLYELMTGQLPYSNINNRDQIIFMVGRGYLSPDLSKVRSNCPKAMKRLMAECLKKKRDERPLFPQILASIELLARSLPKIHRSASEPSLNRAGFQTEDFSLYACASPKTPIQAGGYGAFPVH
For orientation: TR-FRET usually uses a lanthanide donor and a delayed reading to cut background.

Another data set deals with BCRP (Homo sapiens (Human), UniProt Q9UNQ0). The data set is described as follows: BCRP MDCKII permeability assay: efflux ratio. The format is in vitro ADME. To be noted: dog.
Chain of BCRP (Q9UNQ0 whole entry): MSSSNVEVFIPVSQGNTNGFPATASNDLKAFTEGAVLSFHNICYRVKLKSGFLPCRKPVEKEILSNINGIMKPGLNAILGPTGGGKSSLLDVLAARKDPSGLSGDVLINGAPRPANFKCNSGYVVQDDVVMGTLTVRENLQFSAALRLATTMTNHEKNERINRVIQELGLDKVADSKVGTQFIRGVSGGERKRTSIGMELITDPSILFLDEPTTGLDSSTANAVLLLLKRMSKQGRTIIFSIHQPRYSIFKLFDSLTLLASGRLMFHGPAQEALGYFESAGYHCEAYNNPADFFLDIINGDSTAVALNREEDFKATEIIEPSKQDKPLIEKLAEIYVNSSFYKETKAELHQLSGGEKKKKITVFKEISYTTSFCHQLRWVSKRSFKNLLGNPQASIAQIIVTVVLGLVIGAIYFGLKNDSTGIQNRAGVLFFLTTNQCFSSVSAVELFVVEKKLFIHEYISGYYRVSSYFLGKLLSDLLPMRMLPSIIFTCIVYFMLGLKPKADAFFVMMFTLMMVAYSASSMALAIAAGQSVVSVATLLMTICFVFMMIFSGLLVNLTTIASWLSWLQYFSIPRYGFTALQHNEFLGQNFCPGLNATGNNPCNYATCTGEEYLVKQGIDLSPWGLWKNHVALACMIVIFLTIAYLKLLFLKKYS
Another data set has as its system H1755 cells. The data set is described as follows: Cellular phospho-ERK inhibition assay in H1755 cells. It counts as cell-based. To be noted: Homo sapiens, NCI-H1755, 2 hours treatment, read-out: H1755 Cell IC50. Put shortly:
(§1)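 In Cell Western detection of phospho-ERK1/2 (Thr202/Tyr204) over GAPDH after 2 h compound exposure (66 pM to 10 μM, 9 points, 0.25% DMSO) of A375 cells in DMEM or H1755 cells in RPMI, both with 10% FBS. Percent of control set by DMSO and 10 μM binimetinib; 4-parameter IC50.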

Another data set has as its target P-gp (MDR1) (Homo sapiens (Human), UniProt P08183). Briefly: MDR1 LLC-PK1 permeability assay: efflux ratio. The format is in vitro ADME. To be noted: pig. From the text:
(§2) Final organic concentration in the assay was 1%.

Another data set has as its system A375 cells. Briefly: Cellular phospho-ERK inhibition assay in A375 cells. It counts as cell-based. To be noted: Homo sapiens, A-375, A375 cells (head prints A357), 2 hours treatment, read-out: A357 cell IC50. The method, boiled down:
as §1

Data set [2] can be described thus: MDR1 LLC-PK1 and BCRP MDCKII permeability assay: permeability coefficient (Papp). The format is in vitro ADME.
From the text: as §2

We go through 16 molecules from patent US12303509B2, “Compounds for the treatment of BRAF-associated diseases and disorders” (Pfizer Inc., priority 2020, dated 2025).

pIC50: −log10 of the molar value. Structures can show the parent of a compound that is named as a salt.

Chain of P-gp (MDR1) (P08183 whole entry, species assumed): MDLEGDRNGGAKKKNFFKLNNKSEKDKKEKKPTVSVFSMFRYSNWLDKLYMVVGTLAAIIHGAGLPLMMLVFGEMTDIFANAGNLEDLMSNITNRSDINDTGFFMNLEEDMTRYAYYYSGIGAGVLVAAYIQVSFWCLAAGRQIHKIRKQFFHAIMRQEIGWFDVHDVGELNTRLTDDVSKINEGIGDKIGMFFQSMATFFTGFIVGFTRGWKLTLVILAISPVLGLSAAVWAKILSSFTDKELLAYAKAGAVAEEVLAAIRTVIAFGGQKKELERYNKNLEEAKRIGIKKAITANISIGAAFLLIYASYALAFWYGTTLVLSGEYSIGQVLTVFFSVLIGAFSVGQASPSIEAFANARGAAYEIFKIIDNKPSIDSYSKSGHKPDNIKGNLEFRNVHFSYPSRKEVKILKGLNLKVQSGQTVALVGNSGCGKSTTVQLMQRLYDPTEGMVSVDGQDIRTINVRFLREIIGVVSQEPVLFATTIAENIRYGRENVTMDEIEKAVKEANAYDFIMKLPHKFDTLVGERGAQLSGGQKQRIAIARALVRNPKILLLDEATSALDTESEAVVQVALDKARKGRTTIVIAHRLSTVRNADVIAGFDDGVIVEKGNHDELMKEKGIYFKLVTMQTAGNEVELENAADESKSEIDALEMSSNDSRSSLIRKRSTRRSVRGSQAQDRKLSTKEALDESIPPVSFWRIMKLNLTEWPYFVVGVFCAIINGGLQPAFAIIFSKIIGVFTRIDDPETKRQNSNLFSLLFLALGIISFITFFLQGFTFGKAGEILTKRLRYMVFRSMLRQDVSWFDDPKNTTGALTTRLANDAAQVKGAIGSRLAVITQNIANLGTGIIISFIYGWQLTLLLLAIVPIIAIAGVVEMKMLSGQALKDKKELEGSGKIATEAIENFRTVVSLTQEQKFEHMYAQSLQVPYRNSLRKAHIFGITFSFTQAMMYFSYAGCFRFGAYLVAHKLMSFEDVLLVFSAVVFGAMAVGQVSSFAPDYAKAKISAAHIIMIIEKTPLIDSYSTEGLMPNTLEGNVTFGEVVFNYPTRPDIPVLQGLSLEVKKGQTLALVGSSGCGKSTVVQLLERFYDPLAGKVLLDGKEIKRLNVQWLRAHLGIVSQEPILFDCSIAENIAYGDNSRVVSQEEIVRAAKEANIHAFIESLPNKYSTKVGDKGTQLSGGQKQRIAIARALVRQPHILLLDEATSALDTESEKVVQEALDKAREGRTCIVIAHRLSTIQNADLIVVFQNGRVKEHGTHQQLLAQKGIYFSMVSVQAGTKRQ

With `CO[C@@H]1CCN(S(=O)(=O)Nc2cc(F)c(F)c(Nc3ccc4ncn(C)c(=O)c4c3C)c2Cl)C1` [Example 99, (R)-N-(2-chloro-3-((3,5-dimethyl-4-oxo-3,4-dihydroquinazolin-6-yl)amino)-4,5-difluorophenyl)-3-methoxypyrrolidine-1-sulfonamide], the pIC50 was 8.30 in data set [1], 7.00 in the data set with H1755 cells and 7.48 in the data set on A375 cells. Further, the efflux ratio at 2 h, 1 µM on BCRP stood at 1.4; at P-gp (MDR1), 1.7. The molecule further gave a Papp at 2 h, 1 µM in data set [2] of 34 ×10⁻⁶ cm/s.

With `Cc1c(Nc2cc(Cl)cc(NS(=O)(=O)N3CC[C@@H](F)C3)c2F)ccc2ncn(C)c(=O)c12` [Example 103, (R)-N-(5-chloro-3-((3,5-dimethyl-4-oxo-3,4-dihydroquinazolin-6-yl)amino)-2-fluorophenyl)-3-fluoropyrrolidine-1-sulfonamide], the pIC50 is 8.30 in data set [1], 6.44 with H1755 cells and 6.93 in the data set with A375 cells. The efflux ratio at 2 h, 1 µM on BCRP came to 3.5; on P-gp (MDR1), 3.2. The same molecule registered an apparent permeability (Papp) at 2 h, 1 µM in data set [2] of 25 ×10⁻⁶ cm/s.

In the case of `Cc1c(Nc2cc(Cl)cc(NS(=O)(=O)N3CCCC3)c2F)ccc2ncn(C)c(=O)c12` [Example 104, N-(5-chloro-3-((3,5-dimethyl-4-oxo-3,4-dihydroquinazolin-6-yl)amino)-2-fluorophenyl)pyrrolidine-1-sulfonamide], the pIC50 in data set [1] is 8.30; in the data set on H1755 cells, 6.51; with A375 cells, 6.88. Moreover, the efflux ratio at 2 h, 1 µM was 1.3 at BCRP and 1.2 on P-gp (MDR1). In data set [2], the Papp at 2 h, 1 µM amounted to 22 ×10⁻⁶ cm/s.

For `CC[C@@H]1CCN(S(=O)(=O)Nc2ccc(F)c(Nc3ccc4ncn(C)c(=O)c4c3Cl)c2Cl)C1` [Example 106, (R)-N-(2-chloro-3-((5-chloro-3-methyl-4-oxo-3,4-dihydroquinazolin-6-yl)amino)-4-fluorophenyl)-3-ethylpyrrolidine-1-sulfonamide trifluoroacetate], the results for the pIC50 (in data set [1]; in the data set on H1755 cells; with A375 cells) were 7.92, 6.37 and 6.88, respectively. Moreover, the efflux ratio at 2 h, 1 µM at BCRP was determined as 0.8; on P-gp (MDR1) it was 1.2. This molecule also yielded a Papp at 2 h, 1 µM in data set [2] of 22 ×10⁻⁶ cm/s.

With `Cn1cnc2ccc(Oc3c(F)ccc(NS(=O)(=O)N4CC[C@H](F)C4)c3Cl)c(Cl)c2c1=O` [Example 107, (S)-N-(2-chloro-3-((5-chloro-3-methyl-4-oxo-3,4-dihydroquinazolin-6-yl)oxy)-4-fluorophenyl)-3-fluoropyrrolidine-1-sulfonamide], the negative logarithm of the IC50 (pIC50) is 9.00 in data set [1], 6.94 with H1755 cells and 8.10 in the data set on A375 cells. Also, the efflux ratio at 2 h, 1 µM on BCRP was 1.9; on P-gp (MDR1) it was 2.7. The molecule further showed a Papp at 2 h, 1 µM in data set [2] of 30 ×10⁻⁶ cm/s.

As to `Cn1cnc2ccc(Oc3c(F)ccc(NS(=O)(=O)N4CC5CC5C4)c3Cl)c(Cl)c2c1=O` (stereo not drawn) [Example 108, N-(2-chloro-3-((5-chloro-3-methyl-4-oxo-3,4-dihydroquinazolin-6-yl)oxy)-4-fluorophenyl)-3-azabicyclo[3.1.0]hexane-3-sulfonamide], the pIC50 in data set [1] was 9.00; in the data set with H1755 cells, 5.80; in the data set with A375 cells it was 7.85. Besides, the efflux ratio at 2 h, 1 µM on BCRP is 0.8; on P-gp (MDR1) it was 1.2. In data set [2], the Papp at 2 h, 1 µM turned out to be 25 ×10⁻⁶ cm/s.

With `CCN(C)S(=O)(=O)Nc1ccc(F)c(Oc2ccc3ncn(C)c(=O)c3c2Cl)c1Cl` [Example 109, N-(2-chloro-3-((5-chloro-3-methyl-4-oxo-3,4-dihydroquinazolin-6-yl)oxy)-4-fluorophenyl)-(N-ethyl-N-methyl)-sulfamide], the pIC50 in data set [1] is 8.15; in the data set with H1755 cells, 6.57; with A375 cells, 7.89. Also, the values for the efflux ratio at 2 h, 1 µM on BCRP and at P-gp (MDR1) were 0.8 and 1.1, respectively. Besides, the Papp at 2 h, 1 µM in data set [2] is 34 ×10⁻⁶ cm/s.

As for `CN(C)S(=O)(=O)Nc1ccc(F)c(Oc2ccc3ncn(C)c(=O)c3c2Cl)c1Cl` [Example 110, N-(2-chloro-3-((5-chloro-3-methyl-4-oxo-3,4-dihydroquinazolin-6-yl)oxy)-4-fluorophenyl)-(N,N-dimethyl)-sulfamide], the values for the pIC50 (in data set [1]; with H1755 cells; with A375 cells) were 8.10, 7.32 and 8.22, respectively. Further, the efflux ratio at 2 h, 1 µM is 1.4 at BCRP and 1.5 on P-gp (MDR1). Moreover, the Papp at 2 h, 1 µM in data set [2] worked out at 34 ×10⁻⁶ cm/s.

Turning to `Cc1c(Nc2c(F)ccc(NS(=O)(=O)N3CCCC3)c2F)ccc2ncn(C)c(=O)c12` [Example 113, N-(3-((3,5-dimethyl-4-oxo-3,4-dihydroquinazolin-6-yl)amino)-2,4-difluorophenyl)pyrrolidine-1-sulfonamide trifluoroacetate], the pIC50 in data set [1] was 7.42; with H1755 cells, 6.45; in the data set on A375 cells it was 7.40. The values for the efflux ratio at 2 h, 1 µM at BCRP and at P-gp (MDR1) were 1.9 and 1.3, respectively. This molecule also gave a Papp at 2 h, 1 µM in data set [2] of 18 ×10⁻⁶ cm/s.

As for `Cc1c(Nc2c(F)ccc(NS(=O)(=O)N3CC[C@@H](F)C3)c2F)ccc2ncn(C)c(=O)c12` [Example 114, (R)-N-(3-((3,5-dimethyl-4-oxo-3,4-dihydroquinazolin-6-yl)amino)-2,4-difluorophenyl)-3-fluoropyrrolidine-1-sulfonamide trifluoroacetate], the figures for the pIC50 (in data set [1]; in the data set on H1755 cells; in the data set on A375 cells) were 7.80, 6.76 and 7.44, respectively. In addition, the results for the efflux ratio at 2 h, 1 µM on BCRP and at P-gp (MDR1) were 5.2 and 2.2, respectively. Further, the Papp at 2 h, 1 µM in data set [2] stood at 31 ×10⁻⁶ cm/s.

As for `COCC1CN(S(=O)(=O)Nc2ccc(F)c(Oc3ccc4ncn(C)c(=O)c4c3F)c2Cl)C1` [Example 121, N-(2-chloro-4-fluoro-3-((5-fluoro-3-methyl-4-oxo-3,4-dihydroquinazolin-6-yl)oxy)phenyl)-3-(methoxymethyl)azetidine-1-sulfonamide], the pIC50 in data set [1] was 8.05; in the data set on H1755 cells, 7.74; with A375 cells, 8.15. Further, the efflux ratio at 2 h, 1 µM came out at 6 on BCRP and 1.9 on P-gp (MDR1). The molecule further displayed a Papp at 2 h, 1 µM in data set [2] of 35 ×10⁻⁶ cm/s.

As to `Cc1c(Nc2c(F)ccc(NS(=O)(=O)N3CCC3)c2Cl)ccc2ncn(C)c(=O)c12` [Example 124, N-(2-chloro-3-((3,5-dimethyl-4-oxo-3,4-dihydroquinazolin-6-yl)amino)-4-fluorophenyl)azetidine-1-sulfonamide trifluoroacetate], the pIC50 was 7.77 in data set [1], 5.00 in the data set with H1755 cells and 7.68 in the data set with A375 cells. The efflux ratio at 2 h, 1 µM on BCRP came out at 1.3; on P-gp (MDR1), 1.1. In addition, in data set [2], the Papp at 2 h, 1 µM was found to be 43 ×10⁻⁶ cm/s.

As to `Cc1c(Nc2c(F)ccc(NS(=O)(=O)N3CC(F)C3)c2Cl)ccc2ncn(C)c(=O)c12` [Example 125, N-(2-chloro-3-((3,5-dimethyl-4-oxo-3,4-dihydroquinazolin-6-yl)amino)-4-fluorophenyl)-3-fluoroazetidine-1-sulfonamide], the pIC50 was 8.30 in data set [1], 6.00 with H1755 cells and 7.74 in the data set with A375 cells. Besides, the efflux ratio at 2 h, 1 µM at BCRP worked out at 1.6; at P-gp (MDR1) it was 1.2. In addition, the Papp at 2 h, 1 µM in data set [2] was 37 ×10⁻⁶ cm/s.

With `COC1CN(S(=O)(=O)Nc2ccc(F)c(Nc3ccc4ncn(C)c(=O)c4c3C)c2Cl)C1` [Example 128, N-(2-chloro-3-((3,5-dimethyl-4-oxo-3,4-dihydroquinazolin-6-yl)amino)-4-fluorophenyl)-3-methoxyazetidine-1-sulfonamide trifluoroacetate], the negative logarithm of the IC50 (pIC50) was 7.80 in data set [1], 6.89 in the data set with H1755 cells and 7.60 in the data set on A375 cells. Moreover, the efflux ratio at 2 h, 1 µM on BCRP worked out at 1.3; on P-gp (MDR1) it was 1.5. This molecule yielded an apparent permeability (Papp) at 2 h, 1 µM in data set [2] of 49 ×10⁻⁶ cm/s.

As for `Cc1c(Nc2c(F)ccc(NS(=O)(=O)N3CC(F)(F)C3)c2Cl)ccc2ncn(C)c(=O)c12` [Example 134, N-(2-chloro-3-((3,5-dimethyl-4-oxo-3,4-dihydroquinazolin-6-yl)amino)-4-fluorophenyl)-3,3-difluoroazetidine-1-sulfonamide], the pIC50 is 8.15 in data set [1], 6.49 in the data set on H1755 cells and 7.17 in the data set with A375 cells. Besides, the efflux ratio at 2 h, 1 µM on BCRP amounted to 6.4; on P-gp (MDR1) it was 1.4. In data set [2], the Papp at 2 h, 1 µM is 33 ×10⁻⁶ cm/s.

In the case of `Cn1cnc2ccc(Nc3c(F)ccc(NS(=O)(=O)N4CC(F)(F)C4)c3Cl)c(Cl)c2c1=O` [Example 135, N-(2-chloro-3-((5-chloro-3-methyl-4-oxo-3,4-dihydroquinazolin-6-yl)amino)-4-fluorophenyl)-3,3-difluoroazetidine-1-sulfonamide], the figures for the pIC50 (in data set [1]; in the data set with H1755 cells; with A375 cells) were 8.52, 6.72 and 7.66, respectively. Besides, the efflux ratio at 2 h, 1 µM turned out to be 5.1 at BCRP and 1.9 on P-gp (MDR1). This molecule had a Papp at 2 h, 1 µM in data set [2] of 29 ×10⁻⁶ cm/s.

In general, pIC50 refers to the IC50 on a negative log10 scale, so that one unit is a factor of ten. For orientation: efflux ratio means the permeability from basolateral to apical divided by that in the opposite direction, in the common usage. By Papp is commonly meant the rate of passage across a membrane or cell layer, normalised by area and donor concentration.
